How the values were obtained:
Type in all cases: functional
[1] = test system: UACC-257; test: Growth inhibition of human UACC-257 cells measured after 48 hrs by SRB assay
[2] = test system: MDA-MB-468; test: Growth inhibition of human MDA-MB-468 cells measured after 48 hrs by SRB assay
[3] = test system: HOP-62; test: Growth inhibition of human HOP-62 cells measured after 48 hrs by SRB assay
[4] = test system: HOP-92; test: Growth inhibition of human HOP-92 cells measured after 48 hrs by SRB assay
[5] = test system: TK-10; test: Growth inhibition of human TK-10 cells measured after 48 hrs by SRB assay
[6] = test system: SK-MEL-2; test: Growth inhibition of human SK-MEL-2 cells measured after 48 hrs by SRB assay
[7] = test system: MDA-MB-435; test: Growth inhibition of human MDA-MB-435 cells measured after 48 hrs by SRB assay
[8] = test system: NCI-H460; test: Growth inhibition of human NCI-H460 cells measured after 48 hrs by SRB assay
[9] = test system: OVCAR-8; test: Growth inhibition of human OVCAR-8 cells measured after 48 hrs by SRB assay
[10] = test system: K562; test: Growth inhibition of human K562 cells measured after 48 hrs by SRB assay
[11] = test system: HCT-116; test: Growth inhibition of human HCT-116 cells measured after 48 hrs by SRB assay
[12] = test system: SF-539; test: Growth inhibition of human SF-539 cells measured after 48 hrs by SRB assay
[13] = test system: SR; test: Growth inhibition of human SR cells measured after 48 hrs by SRB assay
[14] = test system: 786-0; test: Growth inhibition of human 786-0 cells measured after 48 hrs by SRB assay
[15] = test system: OVCAR-5; test: Growth inhibition of human OVCAR-5 cells measured after 48 hrs by SRB assay
[16] = test system: HCT-15; test: Growth inhibition of human HCT-15 cells measured after 48 hrs by SRB assay
[17] = test system: NCI/ADR-RES; test: Growth inhibition of human NCI/ADR-RES cells measured after 48 hrs by SRB assay
[18] = test system: NCI-H522; test: Growth inhibition of human NCI-H522 cells measured after 48 hrs by SRB assay
[19] = test system: OVCAR-3; test: Growth inhibition of human OVCAR-3 cells measured after 48 hrs by SRB assay
[20] = test system: SF-295; test: Growth inhibition of human SF-295 cells measured after 48 hrs by SRB assay
[21] = test system: NCI-H322M; test: Growth inhibition of human NCI-H322M cells measured after 48 hrs by SRB assay
[22] = test system: DU-145; test: Growth inhibition of human DU-145 cells measured after 48 hrs by SRB assay
[23] = test system: SK-MEL-5; test: Growth inhibition of human SK-MEL-5 cells measured after 48 hrs by SRB assay
[24] = test system: MCF7; test: Growth inhibition of human MCF7 cells measured after 48 hrs by SRB assay
[25] = test system: SNB-19; test: Growth inhibition of human SNB-19 cells measured after 48 hrs by SRB assay
[26] = test system: KM12; test: Growth inhibition of human KM12 cells measured after 48 hrs by SRB assay
[27] = test system: SF-268; test: Growth inhibition of human SF-268 cells measured after 48 hrs by SRB assay
[28] = test system: UO-31; test: Growth inhibition of human UO-31 cells measured after 48 hrs by SRB assay
[29] = test system: SNB-75; test: Growth inhibition of human SNB-75 cells measured after 48 hrs by SRB assay
[30] = test system: IGROV-1; test: Growth inhibition of human IGROV-1 cells measured after 48 hrs by SRB assay
[31] = test system: NCI-H226; test: Growth inhibition of human NCI-H226 cells measured after 48 hrs by SRB assay
[32] = test system: Hs-578T; test: Growth inhibition of human Hs-578T cells measured after 48 hrs by SRB assay
[33] = test system: PC-3; test: Growth inhibition of human PC-3 cells measured after 48 hrs by SRB assay
[34] = test system: UACC-62; test: Growth inhibition of human UACC-62 cells measured after 48 hrs by SRB assay
[35] = test system: HT-29; test: Growth inhibition of human HT-29 cells measured after 48 hrs by SRB assay
[36] = test system: ACHN; test: Growth inhibition of human ACHN cells measured after 48 hrs by SRB assay
[37] = test system: HCC 2998; test: Growth inhibition of human HCC 2998 cells measured after 48 hrs by SRB assay
[38] = test system: RXF 393; test: Growth inhibition of human RXF 393 cells measured after 48 hrs by SRB assay
[39] = test system: Malme-3M; test: Growth inhibition of human Malme-3M cells measured after 48 hrs by SRB assay
[40] = test system: SK-OV-3; test: Growth inhibition of human SK-OV-3 cells measured after 48 hrs by SRB assay
[41] = test system: CCRF-CEM; test: Growth inhibition of human CCRF-CEM cells measured after 48 hrs by SRB assay
[42] = test system: T47D; test: Growth inhibition of human T47D cells measured after 48 hrs by SRB assay
[43] = test system: HL-60; test: Growth inhibition of human HL-60 cells measured after 48 hrs by SRB assay
[44] = test system: MDA-MB-231; test: Growth inhibition of human MDA-MB-231 cells measured after 48 hrs by SRB assay
[45] = test system: M14; test: Growth inhibition of human M14 cells measured after 48 hrs by SRB assay
[46] = test system: CAKI-1; test: Growth inhibition of human CAKI-1 cells measured after 48 hrs by SRB assay
[47] = test system: SK-MEL-28; test: Growth inhibition of human SK-MEL-28 cells measured after 48 hrs by SRB assay
[48] = test system: LOX IMVI; test: Growth inhibition of human LOX IMVI cells measured after 48 hrs by SRB assay
[49] = test system: SN12C; test: Growth inhibition of human SN12C cells measured after 48 hrs by SRB assay
[50] = test system: BT-549; test: Growth inhibition of human BT-549 cells measured after 48 hrs by SRB assay
[51] = test system: MOLT-4; test: Growth inhibition of human MOLT-4 cells measured after 48 hrs by SRB assay
[52] = test system: COLO 205; test: Growth inhibition of human COLO 205 cells measured after 48 hrs by SRB assay
[53] = test system: A498; test: Growth inhibition of human A498 cells measured after 48 hrs by SRB assay
[54] = test system: NCI-H23; test: Growth inhibition of human NCI-H23 cells measured after 48 hrs by SRB assay
[55] = test system: A549; test: Growth inhibition of human A549 cells measured after 48 hrs by SRB assay
[56] = test system: U-251; test: Growth inhibition of human U-251 cells measured after 48 hrs by SRB assay
[57] = test system: SW-620; test: Growth inhibition of human SW-620 cells measured after 48 hrs by SRB assay

C[C@]12CC[C@H](O[C@@H]3O[C@H](CO)[C@@H](O)[C@H](O)[C@H]3O)C=C1CC[C@@H]1[C@@H]2[C@@H](O)C[C@]2(C)[C@@H](c3ccc(=O)oc3)CC[C@]12O
GI50 [1]: 93 nM | GI50 [2]: 109 nM | GI50 [3]: 26 nM | GI50 [4]: 66 nM | GI50 [5]: 31 nM | GI50 [6]: 59 nM | GI50 [7]: 73 nM | GI50 [8]: 13 nM | GI50 [9]: 65 nM | GI50 [10]: 80 nM | GI50 [11]: 15 nM | GI50 [12]: 31 nM | GI50 [13]: 55 nM | GI50 [14]: 38 nM | GI50 [15]: 60 nM | GI50 [16]: 53 nM | GI50 [17]: 33 nM | GI50 [18]: 9 nM | GI50 [19]: 36 nM | GI50 [20]: 61 nM | GI50 [21]: 30 nM | GI50 [22]: 31 nM | GI50 [23]: 55 nM | GI50 [24]: 42 nM | GI50 [25]: 108 nM | GI50 [26]: 91 nM | GI50 [27]: 18 nM | GI50 [28]: 34 nM | GI50 [29]: 82 nM | GI50 [30]: 64 nM | GI50 [31]: 47 nM | GI50 [32]: 25 nM | GI50 [33]: 46 nM | GI50 [34]: 7 nM | GI50 [35]: 81 nM | GI50 [36]: 10 nM | GI50 [37]: 136 nM | GI50 [38]: 20 nM | GI50 [39]: 63 nM | GI50 [40]: 74 nM | GI50 [41]: 16 nM | GI50 [42]: 78 nM | GI50 [43]: 50 nM | GI50 [44]: 193 nM | GI50 [45]: 83 nM | GI50 [46]: 41 nM | GI50 [47]: 107 nM | GI50 [48]: 64 nM | GI50 [49]: 15 nM | GI50 [50]: 27 nM | GI50 [51]: 11 nM | GI50 [52]: 102 nM | GI50 [53]: 38 nM | GI50 [54]: 27 nM | GI50 [55]: 15 nM | GI50 [56]: 79 nM | GI50 [57]: 51 nM

CC(=O)OC[C@H]1O[C@@H](O[C@@H]2C=C3CC[C@@H]4[C@H]([C@@H](O)C[C@]5(C)[C@@H](c6ccc(=O)oc6)CC[C@]45O)[C@@]3(C)CC2)[C@H](OC(C)=O)[C@@H](OC(C)=O)[C@@H]1OC(C)=O
GI50 [1]: 376 nM | GI50 [2]: 642 nM | GI50 [3]: 105 nM | GI50 [4]: 286 nM | GI50 [5]: 128 nM | GI50 [6]: 362 nM | GI50 [7]: 290 nM | GI50 [8]: 65 nM | GI50 [9]: 246 nM | GI50 [10]: 386 nM | GI50 [11]: 75 nM | GI50 [12]: 77 nM | GI50 [13]: 285 nM | GI50 [14]: 102 nM | GI50 [15]: 381 nM | GI50 [16]: 225 nM | GI50 [17]: 283 nM | GI50 [18]: 70 nM | GI50 [19]: 92 nM | GI50 [20]: 129 nM | GI50 [21]: 114 nM | GI50 [22]: 109 nM | GI50 [23]: 95 nM | GI50 [24]: 103 nM | GI50 [25]: 421 nM | GI50 [26]: 597 nM | GI50 [27]: 109 nM | GI50 [28]: 92 nM | GI50 [29]: 302 nM | GI50 [30]: 111 nM | GI50 [31]: 264 nM | GI50 [32]: 91 nM | GI50 [33]: 247 nM | GI50 [34]: 155 nM | GI50 [35]: 321 nM | GI50 [36]: 56 nM | GI50 [37]: 677 nM | GI50 [38]: 41 nM | GI50 [39]: 105 nM | GI50 [40]: 322 nM | GI50 [41]: 110 nM | GI50 [42]: 338 nM | GI50 [43]: 140 nM | GI50 [44]: 812 nM | GI50 [45]: 416 nM | GI50 [46]: 98 nM | GI50 [47]: 273 nM | GI50 [48]: 314 nM | GI50 [49]: 65 nM | GI50 [50]: 93 nM | GI50 [51]: 88 nM | GI50 [52]: 629 nM | GI50 [53]: 64 nM | GI50 [54]: 181 nM | GI50 [55]: 75 nM | GI50 [56]: 295 nM | GI50 [57]: 114 nM

Reference: ChEMBL document CHEMBL4837183, “Antiproliferative Bufadienolides from the Bulbs of Drimia altissima” (2021)
